Patent USRE46856E1, “Substituted 2,3-dihydroimidazo[1,2-c]quinazoline derivatives useful for treating hyper-proliferative disorders and diseases associated with angiogenesis” (Bayer Intellectual Property GmbH, priority 2006, dated 2018)
Structures can show the parent of a compound that is named as a salt.

Experiments:
PI3Kα = biological target: T1, PI3Kα (Homo sapiens, UniProt P42336); test: Solid-phase lipid kinase assay of PI3Kα (p110α assay); type: biochemical; details: recombinant truncated human p110α, 10 μM ATP
T1 construct: His6 (N); made in house; host or cells: S. frugiperda 9 (Sf9) insect cells
From the text: [Determination of IC50 Values of Compounds in Kinase Assay of PI3Kα]
LABORATORIES (Toronto, Canada). […] [γ^33P]ATP and unlabeled ATP were purchased from […] […] BIOTECH (Buckinghamshire, UK) and ROCHE DIAGNOSTICS (Mannheim, Germany), respectively. Scintillation cocktails and MicroScint PS™ were purchased from PACKARD (Meriden, Conn.). Maxisorp™ plates were purchased from NALGE NUNC INTERNATIONAL K.K. (Tokyo, Japan). All other chemicals not further specified were from WAKO PURE CHEMICALS (Osaka, Japan).
The plates were subsequently air-dried by incubation for at least 2 hours in a fume hood. The reaction was set up by mixing 25 μL/well of assay buffer 2×(100 mM MOPSO/NaOH, 0.2 M NaCl, pH 7.0, 8 mM MgCl2, 2 mg/mL BSA (fatty acid-free)), and 7.5 ng/well PI3Kα in the lipid pre-coated plate. 100× test compounds were added in 2% DMSO. The reaction was started by adding 20 μL/well of ATP mix (final 10 μM ATP; 0.05 μCi/well [γ^33P]ATP). After incubation at RT for 2 hours, the reaction was terminated by adding 50 μl/well stop solution (50 mM EDTA, pH 8.0). The plate was then washed twice with Tris-buffered saline (TBS, pH 7.4). MicroScint PS™ (PACKARD) scintillation mix was added at 100 μL/well, and radioactivity was counted using a TopCount™ (PACKARD) scintillation counter.
The inhibition percent at each concentration of compound was calculated, and IC50 values were determined from the inhibition of curve.

PI3Kβ = biological target: T2, PI3Kβ (Homo sapiens, UniProt P42338); test: Isozyme selectivity test: kinase assay of PI3Kβ (p110β assay); type: biochemical; details: recombinant truncated p110β, 7.5 ng protein/well
T2 construct: His6 (N); made in house; host or cells: S. frugiperda 9 (Sf9) insect cells
From the text: [Isozyme Selectivity Test in PI3K]
Determination of IC50 Values of Compounds in Kinase Assays of PI3Kβ and PI3Kγ

[1] = system: IGF-1 induced AKT phosphorylation in A549 cells; test: IGF-1 induced AKT phosphorylation assay (A549 cell assay); type: cell-based; details: Homo sapiens; A549 cells, 25 ng/ml IGF-1, phospho-AKT(Ser 473); read-out: average IC50 in the A549 cell assay
Summary of the method: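 A549 cells stimulated with 25 ng/ml IGF-1 for 10 min at 37 °C, then fixed in formaldehyde/methanol. Phospho-AKT detected by cell ELISA (primary anti-phospho-AKT, HRP secondary, ECL luminescence); IC50 from inhibition curve.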

T1 sequence (P42336 109-1068): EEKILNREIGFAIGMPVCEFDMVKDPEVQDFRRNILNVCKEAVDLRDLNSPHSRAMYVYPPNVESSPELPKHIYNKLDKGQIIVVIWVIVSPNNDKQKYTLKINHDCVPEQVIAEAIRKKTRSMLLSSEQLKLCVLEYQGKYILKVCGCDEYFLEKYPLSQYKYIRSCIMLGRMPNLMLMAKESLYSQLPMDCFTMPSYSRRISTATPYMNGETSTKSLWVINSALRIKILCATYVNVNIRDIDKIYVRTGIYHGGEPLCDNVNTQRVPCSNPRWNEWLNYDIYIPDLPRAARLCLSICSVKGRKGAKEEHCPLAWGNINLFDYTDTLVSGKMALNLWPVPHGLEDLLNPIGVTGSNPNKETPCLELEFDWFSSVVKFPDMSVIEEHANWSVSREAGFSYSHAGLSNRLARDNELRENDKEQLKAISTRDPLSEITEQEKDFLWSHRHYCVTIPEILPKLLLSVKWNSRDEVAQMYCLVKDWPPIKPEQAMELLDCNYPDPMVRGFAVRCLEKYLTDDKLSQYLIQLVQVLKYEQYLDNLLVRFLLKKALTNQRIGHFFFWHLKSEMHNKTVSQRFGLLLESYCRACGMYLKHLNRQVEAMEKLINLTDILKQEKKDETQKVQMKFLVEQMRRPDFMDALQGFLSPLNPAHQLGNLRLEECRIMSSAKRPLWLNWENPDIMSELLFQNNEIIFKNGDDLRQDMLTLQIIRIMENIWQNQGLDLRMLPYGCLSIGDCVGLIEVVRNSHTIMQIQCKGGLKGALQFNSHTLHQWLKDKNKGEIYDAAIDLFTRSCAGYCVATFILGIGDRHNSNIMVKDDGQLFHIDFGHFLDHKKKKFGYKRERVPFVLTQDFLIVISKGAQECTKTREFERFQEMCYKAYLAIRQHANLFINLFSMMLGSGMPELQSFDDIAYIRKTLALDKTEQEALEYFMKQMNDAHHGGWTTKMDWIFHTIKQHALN
T2 sequence (P42338 109-1070): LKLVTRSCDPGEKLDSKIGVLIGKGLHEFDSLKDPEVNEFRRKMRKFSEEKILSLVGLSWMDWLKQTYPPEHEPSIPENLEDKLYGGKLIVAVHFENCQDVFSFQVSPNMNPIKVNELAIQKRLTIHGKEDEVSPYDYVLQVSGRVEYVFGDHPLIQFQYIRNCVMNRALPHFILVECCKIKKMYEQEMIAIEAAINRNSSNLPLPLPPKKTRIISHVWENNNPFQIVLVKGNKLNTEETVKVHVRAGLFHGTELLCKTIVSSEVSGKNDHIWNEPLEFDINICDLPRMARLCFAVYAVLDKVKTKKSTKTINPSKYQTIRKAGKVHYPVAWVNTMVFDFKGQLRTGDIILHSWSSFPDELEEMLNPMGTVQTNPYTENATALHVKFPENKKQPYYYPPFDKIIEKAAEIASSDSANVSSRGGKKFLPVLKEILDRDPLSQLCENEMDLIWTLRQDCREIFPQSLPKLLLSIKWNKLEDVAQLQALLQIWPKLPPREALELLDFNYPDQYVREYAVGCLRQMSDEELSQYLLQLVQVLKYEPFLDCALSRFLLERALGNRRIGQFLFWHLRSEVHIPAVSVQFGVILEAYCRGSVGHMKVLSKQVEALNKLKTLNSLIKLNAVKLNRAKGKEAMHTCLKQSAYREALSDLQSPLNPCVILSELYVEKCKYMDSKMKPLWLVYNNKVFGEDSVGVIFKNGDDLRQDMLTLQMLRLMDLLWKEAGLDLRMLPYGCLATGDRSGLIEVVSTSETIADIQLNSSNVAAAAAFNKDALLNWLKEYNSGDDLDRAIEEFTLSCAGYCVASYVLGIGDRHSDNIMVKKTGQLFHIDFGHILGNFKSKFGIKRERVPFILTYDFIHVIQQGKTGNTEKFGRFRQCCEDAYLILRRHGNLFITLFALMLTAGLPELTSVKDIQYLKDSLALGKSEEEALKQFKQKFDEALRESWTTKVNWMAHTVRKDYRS

SMILES | IC50 (PI3Kα) [µM] | IC50 (PI3Kβ) [µM] | IC50 [1] [µM]
COCCN1CCOC(CCOc2ccc3c(c2OC)N=C(NC(=O)c2cccnc2)N2CCN=C32)C1 (stereo not drawn) [Example 20, N-(7-methoxy-8-{2-[4-(2-methoxyethyl)morpholin-2-yl]ethoxy}-2,3-dihydroimidazo[1,2-c]quinazolin-5-yl)nicotinamide] | < 0.01 | < 0.01 | < 0.1
CCN1CCOC(COc2ccc3c(c2OC)N=C(NC(=O)c2cccnc2)N2CCN=C32)C1 (stereo not drawn) [Example 21, N-{8-[(4-ethylmorpholin-2-yl)methoxy]-7-methoxy-2,3-dihydroimidazo[1,2-c]quinazolin-5-yl}nicotinamide] | 0.01 to 0.1 | 0.01 to 0.1 | < 0.1
COc1c(OCCCN2CCOCC2)ccc2c1N=C(NC(=O)c1ccncn1)N1CCN=C21 [Example 24, N-[7-methoxy-8-(3-morpholin-4-ylpropoxy)-2,3-dihydroimidazo[1,2-c]quinazolin-5-yl]pyrimidine-4-carboxamide] | > 0.1 | > 0.1 | > 1
COc1c(OCCCN2CCOCC2)ccc2c1N=C(NC(=O)c1cn(C)cn1)N1CCN=C21 [Example 26, N-[7-methoxy-8-(3-morpholin-4-ylpropoxy)-2,3-dihydroimidazo[1,2-c]quinazolin-5-yl]-1-methyl-1H-imidazole-4-carboxamide] | 0.01 to 0.1 | 0.01 to 0.1 | > 1
COCCCNc1ncc(C(=O)NC2=Nc3c(ccc(OCCCN4CCOCC4)c3OC)C3=NCCN23)cn1 [Example 41, N-[7-methoxy-8-(3-morpholin-4-ylpropoxy)-2,3-dihydroimidazo[1,2-c]quinazolin-5-yl]-2-[(3-methoxypropyl)amino]pyrimidine-5-carboxamide] | 0.01 to 0.1 | 0.01 to 0.1 | 0.1 to 1
COc1c(OCCCN2CCOCC2)ccc2c1N=C(NC(=O)c1ccc(NCc3ccc(F)cc3)nc1)N1CCN=C21 [Example 53, 6-[(4-fluorobenzyl)amino]-N-[7-methoxy-8-(3-morpholin-4-ylpropoxy)-2,3-dihydroimidazo[1,2-c]quinazolin-5-yl]nicotinamide] | 0.01 to 0.1 | 0.01 to 0.1 | > 1
COc1c(OCCCN2CCOCC2)ccc2c1N=C(NC(=O)c1ccc(-n3cccc3)nc1)N1CCN=C21 [Example 56, N-[7-methoxy-8-(3-morpholin-4-ylpropoxy)-2,3-dihydroimidazo[1,2-c]quinazolin-5-yl]-6-(1H-pyrrol-1-yl)nicotinamide] | 0.01 to 0.1 | 0.01 to 0.1 | > 1
COc1c(OCCCN2CCOCC2)ccc2c1N=C(NC(=O)c1ccc(N3CCOCC3)nc1)N1CCN=C21 [Example 57, N-[7-methoxy-8-(3-morpholin-4-ylpropoxy)-2,3-dihydroimidazo[1,2-c]quinazolin-5-yl]-6-morpholin-4-ylnicotinamide] | 0.01 to 0.1 | 0.01 to 0.1 | 0.1 to 1
COc1c(OCCCN2CCOCC2)ccc2c1N=C(NC(=O)c1ccc(OCC(F)(F)F)nc1)N1CCN=C21 [Example 61, N-[7-methoxy-8-(3-morpholin-4-ylpropoxy)-2,3-dihydroimidazo[1,2-c]quinazolin-5-yl]-6-(2,2,2-trifluoroethoxy)nicotinamide] | 0.01 to 0.1 | 0.01 to 0.1 | 0.1 to 1

Next, values leading:

IC50 (PI3Kα) [µM] | IC50 (PI3Kβ) [µM] | IC50 [1] [µM] | SMILES
0.01 to 0.1 | 0.01 to 0.1 | > 1 | COc1c(OCCCN2CCOCC2)ccc2c1N=C(NC(=O)c1ccnc(N)n1)N1CCN=C21 [Example 25, 2-amino-N-[7-methoxy-8-(3-morpholin-4-ylpropoxy)-2,3-dihydroimidazo[1,2-c]quinazolin-5-yl]pyrimidine-4-carboxamide]
< 0.01 | < 0.01 | < 0.1 | COc1c(OCCCN2C[C@@H](C)O[C@@H](C)C2)ccc2c1N=C(NC(=O)c1cncnc1)N1CCN=C21 [Example 27, rel-N-(8-{3-[(2R,6S)-2,6-dimethylmorpholin-4-yl]propoxy}-7-methoxy-2,3-dihydroimidazo[1,2-c]quinazolin-5-yl)pyrimidine-5-carboxamide]
< 0.01 | < 0.01 | < 0.1 | COc1c(OCCCN2C[C@@H](C)O[C@@H](C)C2)ccc2c1N=C(NC(=O)c1ccc(C)nc1)N1CCN=C21 [Example 28, rel-N-(8-{3-[(2R,6S)-2,6-dimethylmorpholin-4-yl]propoxy}-7-methoxy-2,3-dihydroimidazo[1,2-c]quinazolin-5-yl)-6-methylnicotinamide]
< 0.01 | < 0.01 | < 0.1 | COc1c(OCCCN2C[C@@H](C)O[C@@H](C)C2)ccc2c1N=C(NC(=O)c1ccc(NC(C)=O)nc1)N1CCN=C21 [Example 29, rel-6-acetamido-N-(8-{3-[(2R,6S)-2,6-dimethylmorpholin-4-yl]propoxy}-7-methoxy-2,3-dihydroimidazo[1,2-c]quinazolin-5-yl)nicotinamide]
< 0.01 | < 0.01 | < 0.1 | COc1c(OCCCN2C[C@@H](C)O[C@@H](C)C2)ccc2c1N=C(NC(=O)c1cnc(N)nc1)N1CCN=C21 [Example 38, rel-2-amino-N-(8-{3-[(2R,6S)-2,6-dimethylmorpholin-4-yl]propoxy}-7-methoxy-2,3-dihydroimidazo[1,2-c]quinazolin-5-yl)pyrimidine-5-carboxamide]
< 0.01 | < 0.01 | < 0.1 | COc1c(OCCCN2C[C@@H](C)O[C@@H](C)C2)ccc2c1N=C(NC(=O)c1ccc(N)nc1)N1CCN=C21 [Example 39, rel-6-amino-N-(8-{3-[(2R,6S)-2,6-dimethylmorpholin-4-yl]propoxy}-7-methoxy-2,3-dihydroimidazo[1,2-c]quinazolin-5-yl)nicotinamide]
0.01 to 0.1 | 0.01 to 0.1 | > 1 | COc1c(OCCCN2CCOCC2)ccc2c1N=C(NC(=O)c1cnc(NCCCN3CCOCC3)nc1)N1CCN=C21 [Example 43, N-[7-methoxy-8-(3-morpholin-4-ylpropoxy)-2,3-dihydroimidazo[1,2-c]quinazolin-5-yl]-2-[(3-morpholin-4-ylpropyl)amino]pyrimidine-5-carboxamide]
0.01 to 0.1 | 0.01 to 0.1 | < 0.1 | COc1c(OCCCN2CCOCC2)ccc2c1N=C(NC(=O)c1cnc(N3CCCC3)nc1)N1CCN=C21 [Example 47, N-[7-methoxy-8-(3-morpholin-4-ylpropoxy)-2,3-dihydroimidazo[1,2-c]quinazolin-5-yl]-2-pyrrolidin-1-ylpyrimidine-5-carboxamide]
> 0.1 | > 0.1 | > 1 | COc1c(OCCCN2CCOCC2)ccc2c1N=C(NC(=O)c1cnc(N3CCN(C)CC3)nc1)N1CCN=C21 [Example 48, N-[7-methoxy-8-(3-morpholin-4-ylpropoxy)-2,3-dihydroimidazo[1,2-c]quinazolin-5-yl]-2-(4-methylpiperazin-1-yl)pyrimidine-5-carboxamide]
0.01 to 0.1 | 0.01 to 0.1 | > 1 | COc1c(OCCCN2CCOCC2)ccc2c1N=C(NC(=O)c1ccc(N3CCNCC3)nc1)N1CCN=C21 [Example 50, N-[7-methoxy-8-(3-morpholin-4-ylpropoxy)-2,3-dihydroimidazo[1,2-c]quinazolin-5-yl]-6-piperazin-1-ylnicotinamide hydrochloride]
> 0.1 | > 0.1 | > 1 | COc1c(OCCCN2CCOCC2)ccc2c1N=C(NC(=O)c1ccc(NC(=O)C(C)(C)C)nc1)N1CCN=C21 [Example 59, 6-[(2,2-dimethylpropanoyl)amino]-N-[7-methoxy-8-(3-morpholin-4-ylpropoxy)-2,3-dihydroimidazo[1,2-c]quinazolin-5-yl]nicotinamide]
0.01 to 0.1 | 0.01 to 0.1 | 0.1 to 1 | COc1c(OCCCN2CCOCC2)ccc2c1N=C(NC(=O)c1ccc(C(F)(F)F)nc1)N1CCN=C21 [Example 62, N-[7-methoxy-8-(3-morpholin-4-ylpropoxy)-2,3-dihydroimidazo[1,2-c]quinazolin-5-yl]-6-(trifluoromethyl)nicotinamide]
0.01 to 0.1 | 0.01 to 0.1 | 0.1 to 1 | COc1c(OCCCN2CCOCC2)ccc2c1N=C(NC(=O)c1cccs1)N1CCN=C21 [Example 93, N-[7-methoxy-8-(3-morpholin-4-ylpropoxy)-2,3-dihydroimidazo[1,2-c]quinazolin-5-yl]thiophene-2-carboxamide]
